pIC50: −log10 of the molar value.
Tests used:
c-kit mutant D816V = c-kit mutant D816V (Homo sapiens (Human), UniProt P10721, D816V/DEL694-753); assay: c-Kit mutant D816V biochemical assay (AlphaScreen); conditions: c-kit D816V biochemical inhibitory activity
In short: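 His-tagged c-Kit D816V kinase domain (551-934, Δ694-753, E. coli) phosphorylating 30 nM biotin-(E4Y)10 at 10 μM ATP in HEPES pH 7.2 with Mg/Mn, 5% DMSO, 30 min at room temperature. PY20-acceptor/streptavidin-donor AlphaScreen detection after EDTA stop. IC50 from 8-point 1:3 titration.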

[1] = test system: BaF3-FL KIT D816V or BaF3-FL KIT V560G/D816V cell line; assay: Cell-based assays of c-Kit mutant kinase activity (cell growth, ATPlite); conditions: at least one of the c-kit cell assays of Example 26
In short: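 IC50 derived from ATP-content luminescence (ATPlite) after three-day compound exposure at 37° C., 5% CO2. Cells: BaF3 rendered growth-dependent on full-length human KIT D816V or V560G/D816V, 1×10^4 per well, RPMI plus 10% FBS; 8 points, 1:3 steps, maximum 10 μM final, 0.2% DMSO.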

Sequence of c-kit mutant D816V (P10721 other isoform, or with tags, fused parts or gaps D816V/del 694-753): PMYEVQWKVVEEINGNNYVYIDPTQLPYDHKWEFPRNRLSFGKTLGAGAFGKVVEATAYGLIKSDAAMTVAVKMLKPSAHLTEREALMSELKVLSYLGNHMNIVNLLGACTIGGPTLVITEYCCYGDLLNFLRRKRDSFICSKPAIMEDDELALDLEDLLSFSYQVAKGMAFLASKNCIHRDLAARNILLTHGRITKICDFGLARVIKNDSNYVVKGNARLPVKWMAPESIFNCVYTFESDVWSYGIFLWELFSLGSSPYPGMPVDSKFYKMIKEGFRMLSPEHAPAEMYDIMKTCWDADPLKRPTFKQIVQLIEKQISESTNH

Row | Structure (SMILES) | IC50 (c-kit mutant D816V) [µM] | pIC50 [1]
1 | O=C(Nc1cnc2[nH]c(-c3ccccc3)cc2c1)c1ncccc1F [P-2012, 3-fluoro-N-(2-phenyl-1H-pyrrolo[2,3-b]pyridin-5-yl)pyridine-2-carboxamide] | 1 to 10 | > 5.00
2 | Cc1noc(C)c1C(=O)Nc1cnc2[nH]c(-c3ccccc3)cc2c1 [P-2013, 3,5-dimethyl-N-(2-phenyl-1H-pyrrolo[2,3-b]pyridin-5-yl)isoxazole-4-carboxamide] | 10 to 200 | > 5.00
3 | O=C(Nc1cnc2[nH]c(-c3ccccc3)cc2c1)c1cn[nH]n1 [P-2015, N-(2-phenyl-1H-pyrrolo[2,3-b]pyridin-5-yl)-2H-triazole-4-carboxamide] | 1 to 10 | > 5.00
4 | Cc1cccnc1C(=O)Nc1cnc2[nH]c(-c3ccccc3)cc2c1 [P-2016, 3-methyl-N-(2-phenyl-1H-pyrrolo[2,3-b]pyridin-5-yl)pyridine-2-carboxamide] | 1 to 10 | > 5.00
5 | Cc1cc(C(=O)Nc2cnc3[nH]c(-c4ccc(F)cc4)cc3c2)[nH]n1 [P-2019, N-[2-(4-fluorophenyl)-1H-pyrrolo[2,3-b]pyridin-5-yl]-3-methyl-1H-pyrazole-5-carboxamide] | 0.0001 to 1 | > 5.00
6 | Cc1n[nH]c(C(=O)Nc2cnc3[nH]c(-c4ccc(F)cc4)cc3c2)c1Cl [P-2023, 4-chloro-N-[2-(4-fluorophenyl)-1H-pyrrolo[2,3-b]pyridin-5-yl]-3-methyl-1H-pyrazole-5-carboxamide] | 0.0001 to 1 | > 5.00
7 | Cc1n[nH]c(C(=O)Nc2cnc3[nH]c(-c4ccc(F)cc4)cc3c2)c1C [P-2024, N-[2-(4-fluorophenyl)-1H-pyrrolo[2,3-b]pyridin-5-yl]-3,4-dimethyl-1H-pyrazole-5-carboxamide] | 0.0001 to 1 | > 5.00
8 | CC(=O)Nc1cccc(C(=O)Nc2cnc3[nH]c(-c4ccc(F)cc4)cc3c2)c1 [P-2026, 3-acetamido-N-[2-(4-fluorophenyl)-1H-pyrrolo[2,3-b]pyridin-5-yl]benzamide] | 10 to 200 | > 5.00
9 | O=C(Nc1cnc2[nH]c(-c3ccc(F)cc3)cc2c1)c1cccc2n[nH]cc12 [P-2027, N-[2-(4-fluorophenyl)-1H-pyrrolo[2,3-b]pyridin-5-yl]-2H-indazole-4-carboxamide] | 1 to 10 | > 5.00
10 | Cc1c[nH]nc1C(=O)Nc1cnc2[nH]c(-c3ccc(F)cc3)cc2c1 [P-2029, N-[2-(4-fluorophenyl)-1H-pyrrolo[2,3-b]pyridin-5-yl]-4-methyl-1H-pyrazole-3-carboxamide] | 0.0001 to 1 | > 5.00
11 | CCn1nccc1S(=O)(=O)Nc1cnc2[nH]c(-c3ccc(F)cc3)cc2c1 [P-2030, 2-ethyl-N-[2-(4-fluorophenyl)-1H-pyrrolo[2,3-b]pyridin-5-yl]pyrazole-3-sulfonamide] | 10 to 200 | > 5.00
12 | Cc1cc(C(=O)Nc2cnc3[nH]c(C4=CCN(C(=O)N5CCOCC5)CC4)cc3c2)n[nH]1 [P-2031, 5-methyl-N-[2-[1-(morpholine-4-carbonyl)-3,6-dihydro-2H-pyridin-4-yl]-1H-pyrrolo[2,3-b]pyridin-5-yl]-1H-pyrazole-3-carboxamide] | 0.0001 to 1 | > 5.00
13 | Cc1n[nH]c(C(=O)Nc2cnc3[nH]ccc3c2)c1C [P-2032, 3,4-dimethyl-N-(1H-pyrrolo[2,3-b]pyridin-5-yl)-1H-pyrazole-5-carboxamide] | 1 to 10 | > 5.00
14 | Cc1n[nH]c(C(=O)Nc2cnc3c(c2)cc(C2=CCN(C(=O)N4CCOCC4)CC2)n3S(=O)(=O)c2ccccc2)c1C [P-2033, N-[1-(benzenesulfonyl)-2-[1-(morpholine-4-carbonyl)-3,6-dihydro-2H-pyridin-4-yl]pyrrolo[2,3-b]pyridin-5-yl]-3,4-dimethyl-1H-pyrazole-5-carboxamide] | 0.0001 to 1 | > 5.00
15 | Cc1n[nH]c(C(=O)Nc2cnc3[nH]c(C4=CCN(C(=O)N5CCOCC5)CC4)cc3c2)c1C [P-2034, 3,4-dimethyl-N-[2-[1-(morpholine-4-carbonyl)-3,6-dihydro-2H-pyridin-4-yl]-1H-pyrrolo[2,3-b]pyridin-5-yl]-1H-pyrazole-5-carboxamide] | 0.0001 to 1 | > 5.00
16 | Cc1n[nH]c(C(=O)Nc2cnc3[nH]c(C4=CCN(C(=O)N5CCOCC5)CC4)cc3c2)c1Cl [P-2036, 4-chloro-3-methyl-N-[2-[1-(morpholine-4-carbonyl)-3,6-dihydro-2H-pyridin-4-yl]-1H-pyrrolo[2,3-b]pyridin-5-yl]-1H-pyrazole-5-carboxamide] | 0.0001 to 1 | > 5.00
17 | Cc1n[nH]nc1C(=O)Nc1cnc2[nH]c(-c3ccc(F)cc3)cc2c1 [P-2037, N-[2-(4-fluorophenyl)-1H-pyrrolo[2,3-b]pyridin-5-yl]-5-methyl-2H-triazole-4-carboxamide] | 0.0001 to 1 | > 5.00

Row | Structure (SMILES) | IC50 (c-kit mutant D816V) [µM] | pIC50 [1]
18 | Cc1nn(C)cc1-c1cc2cc(NC(=O)c3[nH]nc(C)c3C)cnc2[nH]1 [P-2038, N-[2-(1,3-dimethylpyrazol-4-yl)-1H-pyrrolo[2,3-b]pyridin-5-yl]-4,5-dimethyl-1H-pyrazole-3-carboxamide] | 0.0001 to 1 | > 5.00
19 | Cc1[nH]nc(C(=O)Nc2cnc3[nH]c(C4=CCN(C(=O)C5CC5)CC4)cc3c2)c1Cl [P-2039, 4-chloro-N-[2-[1-(cyclopropanecarbonyl)-3,6-dihydro-2H-pyridin-4-yl]-1H-pyrrolo[2,3-b]pyridin-5-yl]-5-methyl-1H-pyrazole-3-carboxamide] | 0.0001 to 1 | > 5.00
20 | Cc1n[nH]c(C(=O)Nc2cnc3[nH]nc(C)c3c2)c1C [P-2040, 3,4-dimethyl-N-(3-methyl-1H-pyrazolo[3,4-b]pyridin-5-yl)-1H-pyrazole-5-carboxamide] | 0.0001 to 1 | > 5.00
21 | Cc1cc(C(=O)Nc2cnc3[nH]c(C4=CCN(C(=O)C5CC5)CC4)cc3c2)n[nH]1 [P-2042, N-[2-[1-(cyclopropanecarbonyl)-3,6-dihydro-2H-pyridin-4-yl]-1H-pyrrolo[2,3-b]pyridin-5-yl]-5-methyl-1H-pyrazole-3-carboxamide] | 0.0001 to 1 | > 5.00
22 | Cc1[nH]nc(C(=O)Nc2cnc3[nH]c(C4=CCN(C(=O)C5CC5)CC4)cc3c2)c1C [P-2043, N-[2-[1-(cyclopropanecarbonyl)-3,6-dihydro-2H-pyridin-4-yl]-1H-pyrrolo[2,3-b]pyridin-5-yl]-4,5-dimethyl-1H-pyrazole-3-carboxamide] | 0.0001 to 1 | > 5.00
23 | Cc1n[nH]c(C(=O)Nc2cnc(Nc3ccccc3)nc2)c1C [P-2044, N-(2-anilinopyrimidin-5-yl)-3,4-dimethyl-1H-pyrazole-5-carboxamide] | 0.0001 to 1 | > 5.00
24 | Cc1n[nH]c(C(=O)Nc2ccc(Nc3ccccc3)nc2)c1C [P-2045, N-(6-anilino-3-pyridyl)-3,4-dimethyl-1H-pyrazole-5-carboxamide] | 0.0001 to 1 | > 5.00
25 | O=C(Nc1cnc2[nH]c(-c3ccc(F)cc3)cc2c1)c1n[nH]c2ccccc12 [P-2046, N-[2-(4-fluorophenyl)-1H-pyrrolo[2,3-b]pyridin-5-yl]-1H-indazole-3-carboxamide] | 0.0001 to 1 | > 5.00
26 | O=C(Nc1cnc2[nH]c(-c3ccc(F)cc3)cc2c1)c1n[nH]c2c1CCCC2 [P-2047, N-[2-(4-fluorophenyl)-1H-pyrrolo[2,3-b]pyridin-5-yl]-4,5,6,7-tetrahydro-1H-indazole-3-carboxamide] | 0.0001 to 1 | > 5.00
27 | Cc1n[nH]c(C(=O)Nc2cnc3[nH]c(-c4cnn(C5CCNCC5)c4)cc3c2)c1C [P-2048, 3,4-dimethyl-N-[2-[1-(4-piperidyl)pyrazol-4-yl]-1H-pyrrolo[2,3-b]pyridin-5-yl]-1H-pyrazole-5-carboxamide] | 0.0001 to 1 | > 5.00
28 | Cc1n[nH]c(C(=O)Nc2cnc3[nH]c(Cl)cc3c2)c1C [P-2049, N-(2-chloro-1H-pyrrolo[2,3-b]pyridin-5-yl)-3,4-dimethyl-1H-pyrazole-5-carboxamide] | 0.0001 to 1 | > 5.00
29 | CCNS(=O)(=O)c1cccc(Nc2ncc(NC(=O)c3[nH]nc(C)c3C)cn2)c1 [P-2050, N-[2-[3-(ethylsulfamoyl)anilino]pyrimidin-5-yl]-3,4-dimethyl-1H-pyrazole-5-carboxamide] | 1 to 10 | > 5.00
30 | Cc1n[nH]c(C(=O)Nc2cnc(Nc3cccc(N4CCOCC4)c3)nc2)c1C [P-2051, 3,4-dimethyl-N-[2-(3-morpholinoanilino)pyrimidin-5-yl]-1H-pyrazole-5-carboxamide] | 0.0001 to 1 | > 5.00
31 | CCCS(=O)(=O)Nc1cccc(Nc2ncc(NC(=O)c3[nH]nc(C)c3C)cn2)c1 [P-2052, 3,4-dimethyl-N-[2-[3-(propylsulfonylamino)anilino]pyrimidin-5-yl]-1H-pyrazole-5-carboxamide] | 0.0001 to 1 | > 5.00
32 | Cc1n[nH]c(C(=O)Nc2cnc(Nc3cccc(NS(=O)(=O)c4ccccc4)c3)nc2)c1C [P-2053, N-[2-[3-(benzenesulfonamido)anilino]pyrimidin-5-yl]-3,4-dimethyl-1H-pyrazole-5-carboxamide] | 0.0001 to 1 | > 5.00
33 | CNC(=O)c1cccc(Nc2ncc(NC(=O)c3[nH]nc(C)c3C)cn2)c1 [P-2054, 3,4-dimethyl-N-[2-[3-(methylcarbamoyl)anilino]pyrimidin-5-yl]-1H-pyrazole-5-carboxamide] | 0.0001 to 1 | > 5.00
34 | CCOC(=O)Nc1cccc(Nc2ncc(NC(=O)c3[nH]nc(C)c3C)cn2)c1 [P-2055, ethyl N-[3-[[5-[(3,4-dimethyl-1H-pyrazole-5-carbonyl)amino]pyrimidin-2-yl]amino]phenyl]carbamate] | 0.0001 to 1 | > 5.00
